Measured values: US20140187784A1, “RADIOACTIVE QUINOLINONE DERIVATIVE AND PHARMACEUTICAL DRUG COMPRISING THE SAME” (Nihon Medi-Physics Co., Ltd., priority 2012, published 2014)
pIC50: −log10 of the molar value. Where two headings read alike, the source gives them in different places.

What was measured:
CYP11B2 [1] = target: T1, CYP11B2 (Homo sapiens, UniProt P19099); settings: reported by Stefanie Hahner et al., J Clin Endocrinol Metab 2008; cited from earlier work
T1 sequence (P19099 25-503): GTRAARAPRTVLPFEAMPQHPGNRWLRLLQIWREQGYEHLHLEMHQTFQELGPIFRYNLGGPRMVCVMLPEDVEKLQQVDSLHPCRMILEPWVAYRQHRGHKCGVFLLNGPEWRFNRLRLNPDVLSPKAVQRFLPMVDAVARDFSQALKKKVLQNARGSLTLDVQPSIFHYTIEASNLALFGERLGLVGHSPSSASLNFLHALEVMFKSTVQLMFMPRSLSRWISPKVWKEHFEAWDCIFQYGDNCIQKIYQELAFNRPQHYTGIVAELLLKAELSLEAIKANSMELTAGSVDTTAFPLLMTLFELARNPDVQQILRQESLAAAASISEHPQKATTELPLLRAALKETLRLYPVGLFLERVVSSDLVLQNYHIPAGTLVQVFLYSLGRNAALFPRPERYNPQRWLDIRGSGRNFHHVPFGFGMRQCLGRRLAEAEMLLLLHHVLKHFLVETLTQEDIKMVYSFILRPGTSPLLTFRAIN

CYP11B2 [2] = target: T1, CYP11B2; test: Inhibition of aldosterone production in V79-B2 cells expressing human CYP11B2 (ELISA); assay type: cell-based; parameters: expressed in transfected cells; host or cells: Chinese hamster lung-derived fibroblast V79 cells (V79-B2)
Description: (§1) Chinese hamster lung-derived fibroblast V79 cells (obtained from European Collection of Cell Cultures (ECACC) via DS Pharma Biomedical Co., Ltd.) were allowed to express human CYP11B2 and human CYP11B1 to prepare V79-B2 and V79-B1, respectively. V79-B2 or V79-B1 was inoculated to a microplate and cultured overnight. Then, corticosterone and 11-deoxycortisol were added at final concentrations of 100 nmol/L into the culture supernatants of V79-B2 and V79-B1, respectively. At the same time, iodometomidate (IMTO) or the unlabeled form of PAY15, PAY21, PAY27, or PAY54 synthesized in Example 2, 5, 8, or 12 was added at a final concentration of 10^−4 to 10^3 nmol/L into the culture supernatants. One hour later, the culture supernatant of V79-B1 was recovered, and the concentration of cortisol, which is a metabolite of CYP11B1, was measured by enzyme-linked immunosorbent assay (ELISA). Four hours later, the culture supernatant of V79-B2 was recovered, and the concentration of aldosterone, which is a metabolite of CYP11B2, was measured by ELISA. […] IC50 against cortisol production/IC50 against aldosterone production was calculated and used as a selectivity factor for CYP11B2.

human CYP11B1 = target: T2, human CYP11B1 (Homo sapiens, UniProt P15538); test: Inhibition of cortisol production in V79-B1 cells expressing human CYP11B1 (ELISA); assay type: cell-based; settings: 11-deoxycortisol 100 nmol/L, 1 hour, unlabeled form, read-out: IC50 against cortisol production
T2 construct: expressed in transfected cells; host or cells: Chinese hamster lung-derived fibroblast V79 cells (V79-B1)
T2 sequence (P15538 25-503): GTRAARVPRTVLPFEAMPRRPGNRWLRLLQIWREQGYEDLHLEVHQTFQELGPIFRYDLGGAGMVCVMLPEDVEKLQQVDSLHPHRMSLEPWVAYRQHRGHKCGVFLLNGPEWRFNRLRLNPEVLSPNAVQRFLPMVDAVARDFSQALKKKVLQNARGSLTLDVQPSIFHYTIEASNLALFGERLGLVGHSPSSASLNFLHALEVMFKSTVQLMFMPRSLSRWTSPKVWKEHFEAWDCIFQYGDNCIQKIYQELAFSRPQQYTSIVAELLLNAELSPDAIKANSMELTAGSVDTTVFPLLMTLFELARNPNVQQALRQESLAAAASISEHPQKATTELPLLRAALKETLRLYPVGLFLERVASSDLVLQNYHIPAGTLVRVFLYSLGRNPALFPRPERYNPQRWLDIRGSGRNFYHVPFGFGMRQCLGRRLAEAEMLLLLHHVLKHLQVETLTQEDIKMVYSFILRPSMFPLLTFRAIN
Description: as §1

[3] = Stability evaluation in plasma (HPLC, RI detector); assay type: in vitro ADME; settings: CD-1 mouse plasma, 37° C., incubation for 120 minutes
Description: The stability of [^125I]PAY21 in plasma was evaluated by the following procedures: Blood was collected from the heart of each CD-1 mouse. Plasma was separated by centrifugation and passed through Cosmonice filter (diameter: 4 mm, pore size: 0.45 μm, Nacalai Tesque, Inc.). 350 μL of the plasma thus filtered was incubated at 37° C. for 15 minutes. Then, 30 μL of a saline solution of [^125I]PAY21 (18.5 kBq (0.5 μCi)) was added thereto. After incubation for 120 minutes, a 100 μL aliquot of the mixture was separated and added to methanol (500 μL) under ice cooling. The mixture was further centrifuged, and the supernatant (400 μL) was analyzed by HPLC. The HPLC conditions were the same as those shown in Example 6.

[4] = Pharmacokinetic and distribution experiment (radioactivity in blood and excised organs after tail vein injection); assay type: in vivo; settings: ddy mice; for Adrenal gland/Blood ratio / Adrenal gland/Kidney ratio / Adrenal gland/Liver ratio / Radioactivity Distribution, Adrenal gland / Radioactivity Distribution, Blood / Radioactivity Distribution, Heart / Radioactivity Distribution, Kidney / Radioactivity Distribution, Large intestine / Radioactivity Distribution, Liver / Radioactivity Distribution, Lung / Radioactivity Distribution, Pancreas / Radioactivity Distribution, Small intestine / Radioactivity Distribution, Spleen / Radioactivity Distribution, Stomach / Radioactivity Distribution, Thyroid: tail vein injection, 18.5 kBq (0.5 μCi)
Procedure, shortened: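 [^125I]PAY15 or PAY21 at 18.5 kBq (0.5 μCi), or [^18F]PAY27 or PAY54 at 14.8 kBq […], in saline given i.v. by tail vein to 6-week-old ddy mice (n=5). Blood and weighed organs (thyroid for 125I, thigh bone for 18F) counted for radioactivity at 5–120 min.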

[5] = Pharmacokinetic and distribution experiment using CD-1 (ICR) mice instead of ddy mice; assay type: in vivo; settings: similar operation using CD-1 (ICR) mice instead of ddy mice

SMILES: COC(=O)c1cncn1[C@H](C)c1ccc(I)cc1 [IMTO, iodometomidate, reference compound]
- Selectivity factor (CYP11B2 [1]): 0.261
- Selectivity factor (CYP11B2 [2]; IC50 against cortisol production/IC50 against aldosterone production, selectivity factor for CYP11B2): 0.93
- pIC50 (CYP11B2 [2]; V79-B2 cells, corticosterone 100 nmol/L, 4 hours, unlabeled form, read-out: IC50 against aldosterone production): 9.85
- pIC50 (human CYP11B1): 9.89

SMILES: COC(=O)c1cncn1C(C)c1ccccc1 (stereo not drawn) [MTO, metomidate]
- Selectivity factor (CYP11B2 [1]): 0.275
- selectivity for CYP11B1 versus CYP11B2 (CYP11B2 [1]): higher selectivity for steroid 11β-hydroxylase (CYP11B1) than that for aldosterone synthase (CYP11B2)

SMILES: O=C1CCc2cc(-c3cncc([125I])c3)cc3c2N1CC3 [[^125I]PAY21, 8-(5-[^125I]iodopyridin-3-yl)-1,2,5,6-tetrahydro-4H-pyrrolo[3,2,1-ij]quinolin-4-one]
- peak area of intact compound after incubation in plasma [3]: approximately 60%
- radioactivity accumulation in the adrenal gland compared with blood and periadrenal tissues ([4]; at an early stage after administration): high radioactivity accumulation
- Adrenal gland/Blood ratio ([4]; 5 min): 1.71 ± 0.08
- Adrenal gland/Kidney ratio ([4]; 5 min): 1.52 ± 0.19
- Adrenal gland/Liver ratio ([4]; 5 min): 1.13 ± 0.14
- Radioactivity Distribution, Adrenal gland ([4]; 5 min): 9.7 ± 1.4 % dose/g
- Radioactivity Distribution, Blood ([4]; 5 min): 5.7 ± 0.8 % dose/g
- Radioactivity Distribution, Heart ([4]; 5 min): 3.6 ± 0.4 % dose/g
- Radioactivity Distribution, Kidney ([4]; 5 min): 6.4 ± 0.4 % dose/g
- Radioactivity Distribution, Large intestine ([4]; 5 min): 2.3 ± 0.4 % dose/g
- Radioactivity Distribution, Liver ([4]; 5 min): 8.6 ± 1.1 % dose/g
- Radioactivity Distribution, Lung ([4]; 5 min): 5.6 ± 0.7 % dose/g
- Radioactivity Distribution, Pancreas ([4]; 5 min): 4.0 ± 0.5 % dose/g
- Radioactivity Distribution, Small intestine ([4]; 5 min): 6.0 ± 1.0 % dose/g
- Radioactivity Distribution, Spleen ([4]; 5 min): 3.9 ± 0.4 % dose/g
- Radioactivity Distribution, Stomach ([4]; 5 min): 10.1 ± 1.6 % dose/g
- Radioactivity Distribution, Thyroid ([4]; 5 min): 114.1 ± 22.4 % dose/g
- Adrenal gland/Blood ratio ([4]; 15 min): 0.75 ± 0.17
- Adrenal gland/Kidney ratio ([4]; 15 min): 0.90 ± 0.24
- Adrenal gland/Liver ratio ([4]; 15 min): 1.12 ± 0.36
- Radioactivity Distribution, Adrenal gland ([4]; 15 min): 3.6 ± 1.0 % dose/g
- Radioactivity Distribution, Blood ([4]; 15 min): 4.7 ± 0.4 % dose/g
- Radioactivity Distribution, Heart ([4]; 15 min): 2.1 ± 0.3 % dose/g
- Radioactivity Distribution, Kidney ([4]; 15 min): 4.0 ± 0.6 % dose/g
- Radioactivity Distribution, Large intestine ([4]; 15 min): 2.2 ± 0.1 % dose/g
- Radioactivity Distribution, Liver ([4]; 15 min): 3.2 ± 0.4 % dose/g
- Radioactivity Distribution, Lung ([4]; 15 min): 4.1 ± 0.3 % dose/g
- Radioactivity Distribution, Pancreas ([4]; 15 min): 2.6 ± 0.3 % dose/g
- Radioactivity Distribution, Small intestine ([4]; 15 min): 8.1 ± 2.2 % dose/g
- Radioactivity Distribution, Spleen ([4]; 15 min): 3.0 ± 0.4 % dose/g
- Radioactivity Distribution, Stomach ([4]; 15 min): 28.4 ± 3.3 % dose/g
- Radioactivity Distribution, Thyroid ([4]; 15 min): 332.2 ± 43.1 % dose/g
- Adrenal gland/Blood ratio ([4]; 30 min): 0.76 ± 0.14
- Adrenal gland/Kidney ratio ([4]; 30 min): 0.82 ± 0.10
- Adrenal gland/Liver ratio ([4]; 30 min): 1.26 ± 0.20
- Radioactivity Distribution, Adrenal gland ([4]; 30 min): 2.8 ± 0.3 % dose/g
- Radioactivity Distribution, Blood ([4]; 30 min): 3.7 ± 0.4 % dose/g
- Radioactivity Distribution, Heart ([4]; 30 min): 1.5 ± 0.1 % dose/g
- Radioactivity Distribution, Kidney ([4]; 30 min): 3.4 ± 0.4 % dose/g
- Radioactivity Distribution, Large intestine ([4]; 30 min): 2.1 ± 0.2 % dose/g
- Radioactivity Distribution, Liver ([4]; 30 min): 2.2 ± 0.2 % dose/g
- Radioactivity Distribution, Lung ([4]; 30 min): 3.4 ± 0.3 % dose/g
- Radioactivity Distribution, Pancreas ([4]; 30 min): 2.4 ± 0.5 % dose/g
- Radioactivity Distribution, Small intestine ([4]; 30 min): 10.3 ± 2.8 % dose/g
- Radioactivity Distribution, Spleen ([4]; 30 min): 2.5 ± 0.6 % dose/g
- Radioactivity Distribution, Stomach ([4]; 30 min): 40.7 ± 3.5 % dose/g
- Radioactivity Distribution, Thyroid ([4]; 30 min): 1570.0 ± 165.0 % dose/g
- Adrenal gland/Blood ratio ([4]; 60 min): 0.54 ± 0.17
- Adrenal gland/Kidney ratio ([4]; 60 min): 0.65 ± 0.21
- Adrenal gland/Liver ratio ([4]; 60 min): 1.15 ± 0.38
- Radioactivity Distribution, Adrenal gland ([4]; 60 min): 1.9 ± 0.8 % dose/g
- Radioactivity Distribution, Blood ([4]; 60 min): 3.4 ± 0.6 % dose/g
- Radioactivity Distribution, Heart ([4]; 60 min): 1.3 ± 0.2 % dose/g
- Radioactivity Distribution, Kidney ([4]; 60 min): 2.9 ± 0.6 % dose/g
- Radioactivity Distribution, Large intestine ([4]; 60 min): 2.0 ± 0.4 % dose/g
- Radioactivity Distribution, Liver ([4]; 60 min): 1.6 ± 0.3 % dose/g
- Radioactivity Distribution, Lung ([4]; 60 min): 3.1 ± 0.6 % dose/g
- Radioactivity Distribution, Pancreas ([4]; 60 min): 1.7 ± 0.3 % dose/g
- Radioactivity Distribution, Small intestine ([4]; 60 min): 10.9 ± 2.9 % dose/g
- Radioactivity Distribution, Spleen ([4]; 60 min): 1.9 ± 0.4 % dose/g
- Radioactivity Distribution, Stomach ([4]; 60 min): 39.4 ± 9.1 % dose/g
- Radioactivity Distribution, Thyroid ([4]; 60 min): 1318.7 ± 800.8 % dose/g
- Adrenal gland/Blood ratio ([4]; 120 min): 0.71 ± 0.32
- Adrenal gland/Kidney ratio ([4]; 120 min): 0.81 ± 0.44
- Adrenal gland/Liver ratio ([4]; 120 min): 1.33 ± 0.64
- Radioactivity Distribution, Adrenal gland ([4]; 120 min): 1.8 ± 0.7 % dose/g
- Radioactivity Distribution, Blood ([4]; 120 min): 2.6 ± 0.3 % dose/g
- Radioactivity Distribution, Heart ([4]; 120 min): 1.0 ± 0.2 % dose/g
- Radioactivity Distribution, Kidney ([4]; 120 min): 2.4 ± 0.6 % dose/g
- Radioactivity Distribution, Large intestine ([4]; 120 min): 10.0 ± 4.8 % dose/g
- Radioactivity Distribution, Liver ([4]; 120 min): 1.4 ± 0.2 % dose/g
- Radioactivity Distribution, Lung ([4]; 120 min): 2.6 ± 0.7 % dose/g
- Radioactivity Distribution, Pancreas ([4]; 120 min): 1.6 ± 0.1 % dose/g
- Radioactivity Distribution, Small intestine ([4]; 120 min): 4.8 ± 1.3 % dose/g
- Radioactivity Distribution, Spleen ([4]; 120 min): 1.7 ± 0.1 % dose/g
- Radioactivity Distribution, Stomach ([4]; 120 min): 38.6 ± 6.5 % dose/g
- Radioactivity Distribution, Thyroid ([4]; 120 min): 4664.0 ± 1419.1 % dose/g
- radioactivity distribution in CD-1 (ICR) mice compared with ddy mice [5]: no difference between the species
